Measurements: patent US4092420A, “Novel soft N-chloroamino alcohol derivatives exhibiting antibacterial activity” (INTERx Research Corporation, priority 1977, dated 1978)

Key:
S. aureus [1] = test: Minimal inhibitory concentration (MIC), Example V; type: cell-based; conditions: Staphylococcus aureus
Method: (§1) THE ANTIBACTERIAL SCREEN - EXAMPLE V
(§2) THE ANTIBACTERIAL SCREEN - EXAMPLES W - Z (Autotiter IV)
(§3) (a) Compounds. All compounds to be screened are weighed (approx. 10 mg) on the day preceding the test date. Each compound is solubilized on the day of assay in appropriate solvent and diluted automatically in the Autotiter IV with distilled water (buffer can be employed here also).
(§4) Bacteria: Staphylococcus aureas Smith (or 209), Escherichia coli AB 1932-1, 1100/B22 and Vogel, Streptococcus pyogenes C203 Salmonella typhimurium 14028, Bacillus subtilis 6051-1, Klebsiella pneumoniae 10031, Pseudomonas aeruginosa 9027, Bordetella bronchiseptica 4617 and Staphylococcus epidermidis 12228.
(§5) (c) Inocula. Prior to utilization in the Autotiter IV, all bacteria are cultured for 18-20 hr. (37° C) in tryptose phosphate broth (TP), except, S. pyogenes C203, which is cultured in Brain Heart Infusion broth plus 10% normal horse serum. Immediately prior to testing, each culture is adjusted to an optical density of 0.10 (650 nm), employing a Bausch & Lomb Spectronic 20, and diluted subsequently into double strength medium to approximately 2 × 10^5 viable organisms per ml.
(§6) 1. An automated injector system dispenses 0.05 ml of diluent (sterile H2 O or buffer) to all cups of the autotiter trays from rows 2 through 7.
(§7) 2. The loops (for sequential dilutions of the compounds are moistened by immersion into 70% ethyl alcohol. After removal of excess alcohol by blotting, the loops are moved to the first row of cups in the autotray containing 0.10 ml of the compound to be diluted and tested (usually, this initial concentration is 500 to 1000 mcg/ml, but can be varied upward or downward). The loops are lowered and sequentially transfer the diluted solutions of the compound through row 7.
(§8) Immediately after each dilution is made, each cup is automatically inoculated with 0.05 ml of the appropriate test organism. This inoculation derives from a second injector system containing the organism in double-strength medium. The total operation consists of the automatic dilution of a single compound in each of 8 rows of the Autotiter try.
(§9) After these operations, we reverse the tray and a second compound is diluted over the other one-half of the tray and inoculated, subsequently, with 8 organisms. Thus, for each Autotiter Tray, two compounds are screened against 8 different organisms at dilutions ranging from 1:2 to 1:128.
(§10) (e) Incubation. The inoculated Autotiter trays are incubated at 37° C for 18 - 20 hr. At the end of this period, each tray is examined for the presence or absence of growth (turbidity). The lowest concentration of the compound inhibiting growth is recorded as the minimal inhibitory concentration (MIC).

P. aeruginosa [2] = test: Minimal inhibitory concentration (MIC), Example V; type: cell-based; conditions: Pseudomonas aeruginosa
Method: as §1, §2, §3, §4, §5, §6, §7, §8, §9, §10

S. epidermidis = test: Contact germicidal efficiency (sterilization time); type: cell-based, Staphylococcus epidermidis; conditions: S. epidermidis
Method: (§11) CONTACT GERMICIDAL EFFICIENCY OF N-CHLORAMINES AS A FUNCTION
(§12) ^a Time intervals screened 0.5, 1, 2, 3, 4 and 5 minutes.
(§13) ^a Time intervals screened 0.5, 1, 2, 3, 4, 5, 6, 7, 8, 9 and 10
(§14) ^a Time intervals screened 0.5, 1, 2, 3, 4, and 5 minutes.
(§15) ^b Time intervals screened 0.5, 1, 2, 3, 4, 5, 6, 7, 8, 9 and 10
(§16) Immediately preceding the screen, the compound is weighed and diluted with a buffer or other solvent to give the final concentration desired. The buffer or solvent chosen depends on the conditions of the screen and could be one of the following: 0.1 M NaOAc, pH 4.6; 0.1 M NaH2 PO4, pH 7.0; 0.1 M Na2 B4 O7, pH 8.8; 35% methanol in one of the aforementioned buffers; 10% Triton × 100 in buffer, etc.
(§17) The positive chlorine concentration of the test solution is then determined iodometrically.
(§18) Media used for the Screen are Nutrient Broth, BBL# 11479 and Nutrient Agar, BBL# 11472 prepared according to label directions. The broth is dispensed in 75 ml amounts of flasks for overnight cultures and in 5 ml amounts to culture tubes for subculturing during the Screen. Agar plates are prepared as usual.
(§19) Overnight cultures are prepared by inoculating from stock cultures into the 75 ml flasks of nutrient broth and incubating for 15 hours at 37° C.
(§20) The iodometrically characterized test solution is dispensed in 5 ml amounts to seven small stoppered flasks. The organisms are screened one at a time as follows:
(§21) A 0.2 ml portion of the overnight culture is inoculated into 5 ml of 0.9% NaCl for use in controls. A 0.2 ml portion of the overnight culture is inoculated into a flask containing 5 ml of the test solution, an automatic timer is simultaneously triggered and the solution mixed. At time intervals of 30 seconds, 1, 2, 3, 4, 5, 6, 7, 8, 9, and 10 minutes a loopful of the inoculated solution is subcultured into 5 ml of sterile nutrient broth and mixed by a Vortex Genie Mixer, the high dilution serving to stop the action of the compound. At the end of the ten minute screen, the entire procedure is repeated for each of the remaining six organisms. All of the subculture tubes are incubated at 37° C and checked for signs of growth by turbidity at 24 hr., 48 hr., 3, 5, and 7 days. The earliest subculture time at which no growth is present in the subculture tube is considered the endpoint and is recorded as that time, e.g., 7 minutes.
(§22) The test solution is prepared and characterized as above but is made up at twice the concentration desired. The solution is diluted 1:1 with Rehydrated Tissue Culture Dessicated Horse Serum, Difco #5357-72 and dispensed in a 5 ml amount to a small flask. The mixture is incubated at Room Temperature for 30 minutes to allow denaturation of the compound by the serum and then screened as above.
(§23) The 5 ml mixture of serum and test solution are prepared in sequence to allow as close to 30 minutes as possible before the beginning of the screen of each organism.
as §4

P. aeruginosa [3] = test: Contact germicidal efficiency (sterilization time); type: cell-based, Pseudomonas aeruginosa
Method: as §11, §12, §13, §14, §15, §16, §17, §18, §19, §20, §21, §22, §23, §4

S. aureus [4] = test: Contact germicidal efficiency (sterilization time); type: cell-based, Staphylococcus aureus; conditions: Example Y, pH 4.6, in presence of horse serum, 468 ppm (80 PPMCl+)
Method: CONTACT GERMICIDAL EFFICIENCY OF
as §12, §13, §14, §15, §16, §17
as §18, with “usual. […]” for “usual.”
A 0.2 ml portion of the overnight culture is inoculated into 5 ml of 0.9% NaCl for use in controls. […] The earliest subculture time at which no growth is present in the subculture tube is considered the endpoint and is recorded as that time, e.g., 7 minutes. […]

[5] = Example X, pH 4.6, no horse serum, IV c 404 ppm (69 PPMCl+), IV g 489 ppm (143 PPMCl+)
[6] = Example X, pH 7.0, no horse serum, IV c 1886 ppm (323 PPMCl+), IV g 409 ppm (120 PPMCl+)
[7] = Example X, pH 9.3, no horse serum, IV c 1704 ppm (292 PPMCl+), IV g 319 ppm (94 PPMCl+)
[8] = Example Y, pH 4.6, in presence of horse serum, 468 ppm (80 PPMCl+)

CC(C)(COC(=O)C(C)(C)C)NCl [IV c, 2-N-Chloroamino-2-methyl-1-propyl 2,2-dimethylproprionate]
MIC (S. aureus [1]): > 250 µg/mL
MIC (P. aeruginosa [2]): > 250 µg/mL
Sterilization Time (S. epidermidis; [5]): 0.5 min
Sterilization Time (S. epidermidis; [6]): 3 min
Sterilization Time (S. epidermidis; [7]): 4 min
Sterilization Time (S. epidermidis; [8]): > 10 min
Sterilization Time (P. aeruginosa [3]; [5]): 0.5 min
Sterilization Time (P. aeruginosa [3]; [6]): 1 min
Sterilization Time (P. aeruginosa [3]; [7]): 1 min
Sterilization Time (P. aeruginosa [3]; [8]): > 10 min
Sterilization Time (S. aureus [4]): > 10 min
